± gives the standard deviation of the averaged measurements.
Legend:
Assay in all cases: level (log10 ratio to DMSO vehicle control); higher = higher biomarker level / cell amount than vehicle control
[1] = compound: C=C(C)C(=O)OCCC(F)(F)C(F)(F)C(F)(F)C(F)(F)C(F)(F)C(F)(F)C(F)(F)C(F)(F)F [8:2 Fluorotelomer methacrylate] (in DMSO)
Description: (§1)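 BioMAP Diversity Plus panel of 12 human primary cell co-culture systems (3C, 4H, LPS, SAg, BT, BF4T, BE3C, CASM3C, HDF3CGF, KF3CT, MyoF, Mphg). Compounds were added 1 h before stimulation and left for 24 h (MyoF 48 h; BT 72 h for soluble read-outs or 6 d for IgG). Biomarkers were read by ELISA, cytotoxicity by SRB, PBMC viability and proliferation by Alamar Blue. Each well value was divided by the mean of 8 DMSO control wells on the same plate and log10 transformed; duplicate blinded samples were tested at 4 concentrations.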

[2] = compound: CCOC(=O)CC(=O)C(F)(F)C(F)(F)F [Ethyl pentafluoropropionyl acetate] (in DMSO)
Description: as §1

[3] = compound: CN(C(=O)C(F)(F)C(F)(F)C(F)(F)F)[Si](C)(C)C [N-Methyl-N-trimethylsilylheptafluorobutyramide] (in DMSO)
Description: as §1

[4] = compound: O=C(O)C(F)(F)OC(F)(F)C(F)(F)OC(F)(F)C(F)(F)OC(F)(F)C(F)(F)C(F)(F)C(F)(F)F [Perfluoro-3,6,9-trioxatridecanoic acid] (in DMSO); settings: 6700 nM
Description: as §1

[5] = compound: O=C(O)C=C(C(F)(F)F)C(F)(F)F [3,3-Bis(trifluoromethyl)-2-propenoic acid] (in DMSO)
Description: as §1

[6] = compound: O=S(=O)(O)C(F)(F)C(F)(F)C(F)(F)C(F)(F)C(F)(F)C(F)(F)C(F)(F)F [Perfluoroheptanesulfonic acid] (in DMSO)
Description: as §1

[7] = compound: O=S(=O)(O)CCC(F)(F)C(F)(F)C(F)(F)C(F)(F)C(F)(F)C(F)(F)C(F)(F)C(F)(F)F [8:2 Fluorotelomer sulfonic acid] (in DMSO)
Description: as §1

| Test System | level (log10) ([1]; 6700 nM) | level (log10) ([1]; 20000 nM) | level (log10) ([2]; 6700 nM) | level (log10) ([2]; 20000 nM) | level (log10) ([2]; 60000 nM) | level (log10) ([3]; 6700 nM) | level (log10) ([3]; 20000 nM) | level (log10) ([3]; 60000 nM) | level (log10) [4] | level (log10) ([5]; 6700 nM) | level (log10) ([5]; 20000 nM) | level (log10) ([5]; 60000 nM) | level (log10) ([6]; 1500 nM) | level (log10) ([6]; 4400 nM) | level (log10) ([6]; 13000 nM) | level (log10) ([6]; 40000 nM) | level (log10) ([7]; 6700 nM) | level (log10) ([7]; 20000 nM) | level (log10) ([7]; 60000 nM) |
| --- | --- | --- | --- | --- | --- | --- | --- | --- | --- | --- | --- | --- | --- | --- | --- | --- | --- | --- | --- |
| BF4T:MMP-1 | -0.01 ± 0.0085 | 0.0055 ± 0.00071 | -0.0045 ± 0.03 | -0.0005 ± 0.018 | 0.0155 ± 0.0035 | -0.0105 ± 0.04 | -0.0105 ± 0.054 | 0.0005 ± 0.018 | -0.0535 ± 0.012 | -0.006 ± 0.018 | 0 ± 0.0042 | 0.0125 ± 0.021 | 0.0055 ± 0.0078 | -0.0055 ± 0.005 | -0.019 ± 0.0014 | 0.0225 ± 0.0092 | 0.005 ± 0.0085 | -0.002 ± 0.0071 | 0.0035 ± 0.0021 |
| BF4T:MMP-3 | -0.0035 ± 0.019 | 0.0255 ± 0.044 | 0.0105 ± 0.029 | -0.012 ± 0.047 | -0.0025 ± 0.052 | -0.016 ± 0.031 | -0.008 ± 0.011 | 0 ± 0.017 | -0.0415 ± 0.064 | -0.0165 ± 0.00071 | -0.0105 ± 0.0064 | 0.0205 ± 0.037 | 0.047 ± 0.045 | -0.015 ± 0.014 | 0.0025 ± 0.046 | 0.117 ± 0.028 | -0.0095 ± 0.043 | 0.027 ± 0.034 | 0.0755 ± 0.0078 |
| BF4T:MMP-9 | -0.002 ± 0.059 | 0.026 ± 0.061 | 0.002 ± 0.038 | -0.007 ± 0.044 | -0.007 ± 0.044 | -0.0305 ± 0.064 | -0.012 ± 0.033 | 0.0095 ± 0.023 | -0.106 ± 0.079 | -0.0155 ± 0.0021 | -0.0185 ± 0.018 | -0.004 ± 0.021 | 0.0155 ± 0.08 | -0.031 ± 0.033 | -0.0335 ± 0.054 | -0.003 ± 0.041 | 0.0065 ± 0.015 | -0.003 ± 0.0014 | -0.0215 ± 0.005 |
| BF4T:PAI-I | -0.0075 ± 0.0092 | 0.0055 ± 0.012 | 0.0015 ± 0.011 | 0.004 ± 0.011 | -0.0025 ± 0.011 | 0.0055 ± 0.04 | -0.007 ± 0.017 | 0.0025 ± 0.0064 | -0.011 ± 0.011 | 0.0055 ± 0.0021 | 0.001 ± 0.0042 | -0.0055 ± 0.021 | 0.0205 ± 0.00071 | 0.01 | -0.0225 ± 0.011 | -0.0075 ± 0.025 | 0.005 ± 0.0099 | 0.002 ± 0.011 | 0.009 ± 0.0042 |
| BF4T:SRB | -0.0045 ± 0.0035 | -0.0005 ± 0.00071 | -0.004 | -0.0045 ± 0.0035 | -0.002 ± 0.0057 | -0.0055 ± 0.00071 | -0.003 ± 0.0042 | -0.0005 ± 0.00071 | -0.038 ± 0.013 | 0.0015 ± 0.005 | -0.006 ± 0.011 | 0.0045 ± 0.0092 | 0.0075 ± 0.018 | -0.008 ± 0.0014 | -0.0125 ± 0.0021 | -0.016 ± 0.021 | 0.0035 ± 0.015 | -0.002 ± 0.013 | -0.0005 ± 0.0078 |
| BF4T:tPA | -0.027 ± 0.0028 | -0.017 ± 0.0057 | -0.0045 ± 0.0092 | -0.0035 ± 0.0092 | -0.0145 ± 0.011 | -0.0155 ± 0.015 | 0.0015 ± 0.032 | 0.012 ± 0.0057 | -0.185 ± 0.057 | -0.0965 ± 0.035 | -0.12 ± 0.026 | -0.11 ± 0.029 | 0.0235 ± 0.052 | -0.0065 ± 0.0064 | -0.0165 ± 0.025 | 0.0225 ± 0.039 | -0.0045 ± 0.028 | -0.0525 ± 0.0021 | -0.0465 ± 0.016 |
| BF4T:uPA | -0.013 ± 0.013 | 0.009 ± 0.0014 | -0.0145 ± 0.023 | -0.0045 ± 0.013 | -0.0175 ± 0.025 | -0.013 ± 0.031 | -0.012 ± 0.013 | -0.008 ± 0.0028 | 0.0245 ± 0.018 | -0.0175 ± 0.0078 | -0.0195 ± 0.012 | -0.0135 ± 0.013 | 0.001 ± 0.018 | -0.0035 ± 0.012 | -0.017 ± 0.0014 | 0.0095 ± 0.0064 | 0.012 ± 0.0085 | 0.0055 ± 0.00071 | 0.0175 ± 0.0092 |
| BT:B cell Proliferation | -0.025 ± 0.018 | 0.037 ± 0.033 | 0.012 ± 0.017 | -0.006 ± 0.011 | 0.0035 ± 0.022 | 0.01 ± 0.014 | -0.01 ± 0.02 | -0.007 ± 0.0014 | 0.028 ± 0.02 | -0.0145 ± 0.0021 | -0.0385 ± 0.0035 | -0.121 ± 0.0064 | 0.031 ± 0.041 | 0.0315 ± 0.057 | -0.0185 ± 0.021 | 0.0115 ± 0.053 | 0.016 ± 0.016 | 0.0415 ± 0.005 | 0.0475 ± 0.033 |
| BT:PBMC Cytotoxicity | -0.0005 ± 0.0021 | 0.016 ± 0.058 | -0.0045 ± 0.026 | 0.011 ± 0.0099 | -0.0095 ± 0.029 | -0.007 ± 0.0014 | 0.0035 ± 0.022 | 0.0055 ± 0.044 | 0.0125 ± 0.0078 | 0.0065 ± 0.049 | 0.001 ± 0.02 | -0.009 ± 0.025 | -0.0045 ± 0.021 | -0.009 ± 0.011 | -0.0015 ± 0.013 | 0.0145 ± 0.054 | 0.006 ± 0.018 | 0.0115 ± 0.005 | 0.0505 ± 0.018 |
| BT:Secreted IgG | 0.0175 ± 0.012 | 0.028 ± 0.0085 | 0.024 ± 0.014 | 0.025 ± 0.0071 | 0.013 ± 0.0014 | 0.01 ± 0.011 | 0.016 ± 0.03 | 0.013 ± 0.048 | -0.0225 ± 0.0092 | 0.0155 ± 0.005 | -0.0375 ± 0.052 | -0.597 ± 0.16 | 0.0285 ± 0.0021 | 0.0265 ± 0.0064 | -0.006 ± 0.033 | 0.002 ± 0.045 | 0.032 ± 0.0099 | -0.014 ± 0.031 | -0.025 ± 0.014 |
| BT:sIL-2 | -0.006 ± 0.024 | -0.04 ± 0.064 | -0.058 ± 0.099 | -0.0055 ± 0.04 | -0.007 ± 0.069 | -0.0665 ± 0.013 | -0.0325 ± 0.056 | 0.045 ± 0.042 | 0.0075 ± 0.016 | -0.297 ± 0.042 | -0.529 ± 0.02 | -0.648 ± 0.072 | -0.0445 ± 0.037 | 0.0215 ± 0.039 | -0.0005 ± 0.013 | -0.0565 ± 0.036 | -0.023 ± 0.073 | 0.0195 ± 0.057 | 0.009 ± 0.011 |
| BT:sIL-6 | 0.0115 ± 0.042 | -0.0085 ± 0.11 | 0.019 ± 0.099 | 0.046 ± 0.11 | -0.053 ± 0.1 | -0.054 ± 0.021 | -0.0635 ± 0.0035 | 0.002 ± 0.02 | 0.0165 ± 0.032 | 0.035 ± 0.037 | -0.0575 ± 0.026 | -0.182 ± 0.018 | 0.004 ± 0.013 | 0.03 ± 0.013 | -0.027 ± 0.011 | -0.139 ± 0.057 | 0.015 ± 0.035 | 0.0445 ± 0.015 | -0.005 ± 0.085 |
| BT:sIL-17A | 0.077 ± 0.13 | 0.041 ± 0.16 | -0.088 ± 0.0014 | -0.0195 ± 0.032 | -0.0685 ± 0.081 | -0.0195 ± 0.073 | -0.192 ± 0.11 | 0.071 ± 0.0042 | 0.0515 ± 0.14 | 0.0535 ± 0.043 | -0.246 ± 0.1 | -0.482 ± 0.0028 | 0.0335 ± 0.076 | 0.113 ± 0.035 | 0.026 ± 0.14 | -0.078 ± 0.058 | -0.152 ± 0.057 | -0.012 ± 0.013 | -0.0805 ± 0.16 |
| BT:sIL-17F | 0.032 ± 0.037 | 0.1 ± 0.023 | 0.0355 ± 0.0092 | 0.0155 ± 0.0035 | -0.012 ± 0.093 | -0.017 ± 0.027 | -0.008 ± 0.13 | 0.0005 ± 0.07 | 0.018 ± 0.027 | -0.258 ± 0.031 | -0.426 ± 0.16 | -0.672 ± 0.021 | -0.0155 ± 0.096 | 0.0185 ± 0.025 | 0.0535 ± 0.064 | -0.004 ± 0.067 | -0.0295 ± 0.091 | 0.053 ± 0.0071 | 0.018 |
| BT:sTNF-alpha | -0.031 ± 0.055 | -0.049 ± 0.0042 | -0.124 ± 0.17 | 0.017 ± 0.072 | -0.0495 ± 0.07 | -0.014 ± 0.062 | -0.0875 ± 0.054 | 0.079 ± 0.13 | -0.0035 ± 0.057 | -0.047 ± 0.034 | -0.184 ± 0.04 | -0.637 ± 0.093 | -0.022 ± 0.018 | -0.043 ± 0.0042 | -0.048 ± 0.014 | -0.101 ± 0.0099 | 0.006 ± 0.095 | 0 ± 0.0071 | 0.009 ± 0.034 |

— the supplement of paper PMC10331698
